{
  "source": "patent US20140323349A1",
  "about": "“COMPOSITIONS AND METHODS FOR MONITORING AND DETECTING CANCEROUS CONDITIONS” (PHIGENIX, INC., priority 2011, published 2014)",
  "assay_type_in_all_cases": "cell-based, human",
  "key": {"phospho-STAT3": {"system": "phospho-STAT3", "test": "Western blot of phospho-STAT3", "settings": "DU145", "description": "(§1) Western blot analysis was performed as described in Example 2. […] After washing, the membranes were incubated with anti-rabbit antibody conjugated to horseradish peroxidase (HRP) (dilution 1:5000; Sigma), and signal detection was visualized using chemilluminescence reagents (Pierce) on an Alpha Innotech Fluorchem 8900. As a control, blots were stripped and re-probed with mouse anti-β-actin primary antibody (1:5000; Sigma-Aldrich) and HRP-conjugated anti-mouse secondary antibody (1:5000; Sigma-Aldrich), and signal detection was again visualized."}, "phospho-PAX2": {"system": "phospho-PAX2", "test": "Western blot of phospho-PAX2", "settings": "DU145", "description": "as §1"}, "PAX2 protein": {"system": "PAX2 protein", "test": "Western blot analysis of PAX2 protein", "settings": "DU145; 5 uM Los, 25 uM U0126, 20 uM PD98059, 250 μM AICAR", "description": "Briefly, cells were harvested by trypsinization and washed twice with PBS. Lysis buffer was prepared according to the manufacturer's instructions (Sigma), and was then added to the cells. Following a 15 minute incubation period at 4° C. on an orbital shaker, cell lysate were then collected and centrifuged for 10 minutes at 12000×g to pellet cellular debris. The protein-containing supernatant were then collected and quantitated. Next, 25 μg protein extract was loaded onto an 8-16% gradient SDS-PAGE (Novex). Following electrophoresis, proteins were transferred to PVDF membranes, and then blocked with 5% nonfat dry milk in TTBS (0.05% Tween 20 and 100 mM Tris-C1) for 1 hour. Blots were then probed with rabbit anti-PAX2 primary antibody (Zymed, San Francisco, Calif.) at a 1:2000 dilution. After washing, the membranes were incubated with anti-rabbit antibody conjugated to horseradish peroxidase (HRP) (dilution 1:5000; Sigma), and signal detection was visualized using chemilluminescence reagents (Pierce) on an Alpha Innotech Fluorchem 8900. As a control, blots were stripped and reprobed with mouse anti-β-actin primary antibody (1:5000; Sigma-Aldrich) and HRP-conjugated anti-mouse secondary antibody (1:5000; Sigma-Aldrich) and signal detection was again visualized.\nWestern blot analysis was performed as described in Example 2. Blots were then probed with primary antibody (anti-PAX2, -phospho-PAX2, -JNK, -phospho-JNK, -ERK1/2, or -phospho-ERK1/2) (Zymed, San Francisco, Calif.) at 1:1000-2000 dilutions. After washing, the membranes were incubated with anti-rabbit antibody conjugated to horseradish peroxidase (HRP) (dilution 1:5000; Sigma), and signal detection was visualized using chemilluminescence reagents (Pierce) on an Alpha Innotech Fluorchem 8900. As a control, blots were stripped and re-probed with mouse anti-β-actin primary antibody (1:5000; Sigma-Aldrich) and HRP-conjugated anti-mouse secondary antibody (1:5000; Sigma-Aldrich), and signal detection was again visualized."}, "phospho-JNK": {"system": "phospho-JNK", "test": "Western blot of phospho-JNK", "settings": "DU145", "description": "as §1"}, "ERK": {"system": "ERK", "test": "Western blot of ERK", "settings": "DU145", "description": "as §1"}, "DU145 cells": {"system": "DU145 cells", "test": "[3H]thymidine incorporation proliferation assay", "description": "Proliferation of cells was determined by [^3H] thymidine ribotide ([3H]TdR) incorporation into DNA. 0.5×10^6 cells/well of suspension DU145 cells were plated in their appropriate media. Cells were incubated for 72 h with or without the presence of AngII at the indicated concentrations. Cells were exposed to 37 kBq/ml [methyl-3H]thymidine in the same medium for 6 h. The adherent cells were fixed by 5% trichloroacetic acid and lysed in SDS/NaOH lysis buffer overnight. Radioactivity was measured by Beckman LS3801 liquid scintillation counter (Canada). Suspension cell cultures were harvested by cell harvester (Packard Instrument Co., Meriden, Conn.), and radioactivity was measured by 1450 microβ liquid scintillation counter (PerkinElmer Life Sciences)."}, "PAX2": {"system": "PAX2", "test": "PAX2 expression after treatment with AngII or receptor blockers", "settings": "for reduction of PAX2 expression: versus untreated control", "description": "Western blot analysis was performed as described in Example 2. […] After washing, the membranes were incubated with anti-rabbit antibody conjugated to horseradish peroxidase (HRP) (dilution 1:5000; Sigma), and signal detection was visualized using chemilluminescence reagents (Pierce) on an Alpha Innotech Fluorchem 8900. As a control, blots were stripped and re-probed with mouse anti-β-actin primary antibody (1:5000; Sigma-Aldrich) and HRP-conjugated anti-mouse secondary antibody (1:5000; Sigma-Aldrich), and signal detection was again visualized. Quantitative real-time RT-PCR was performed as described in Example 1 to verify changes in gene expression following PAX2 knockdown in PC3 and DU145 prostate cancer cell lines and the hPrEC normal prostate epithelial cells. Forty cycles of PCR were performed under standard conditions using an annealing temperature of 60° C. Quantification was determined by the cycle number where exponential amplification began (threshold value) and averaged from the values obtained from the triplicate repeats. There was an inverse relationship between message level and threshold value. In addition, GAPDH was used as a housekeeping gene to normalize the initial content of total cDNA. Relative expression was calculated as the ratio between each genes and GAPDH. All reactions were carried out in triplicate."}, "phospho-ERK 1/2": {"system": "phospho-ERK 1/2", "test": "Western blot of phospho-ERK 1/2", "settings": "DU145", "description": "as §1"}, "DEFB1": {"system": "DEFB1", "test": "QRT-PCR of DEFB1 (hBD-1) expression", "settings": "10 μM", "description": "Briefly, total RNA was isolated using the SV Total RNA Isolation System (Promega, Madison, Wis.) from approximately 1×10^6 cells harvested by trypsinizing. Cells were lysed and total RNA was isolated by centrifugation through spin columns. For cells collected by LCM, total RNA was isolated using the PicoPure RNA Isolation Kit (Arcturus Biosciences, Mt. View, Calif.) following the manufacturer's protocol. Total RNA (0.5 μg per reaction) from both sources was reverse transcribed into cDNA utilizing random primers (Promega). AMV Reverse Transcriptase II enzyme (500 units per reaction; Promega) was used for first strand synthesis and Tfl DNA Polymerase for second strand synthesis (500 units per reaction; Promega) as per the manufacturer's protocol. In each case, 50 pg of cDNA was used per ensuing PCR reaction. Two-step QRT-PCR was performed on cDNA generated using the MultiScribe Reverse Transcripatase from the TaqMan Reverse Transcription System and the SYBR® Green PCR Master Mix (Applied Biosystems).\nForty cycles of PCR were performed under standard conditions using an annealing temperature of 56° C. In addition, β-actin (Table 2) was amplified as a housekeeping gene to normalize the initial content of total cDNA. […]\nQuantitative real-time RT-PCR was performed as described in Example 1 to verify changes in gene expression following PAX2 knockdown in PC3 and DU145 prostate cancer cell lines and the hPrEC normal prostate epithelial cells. […] Quantification was determined by the cycle number where exponential amplification began (threshold value) and averaged from the values obtained from the triplicate repeats. […] Relative expression was calculated as the ratio between each genes and GAPDH. […]\nQRT-PCR was performed as previously described (Gibson et al., 2007). […] Gene expression in benign prostate tissue samples was calculated as the expression ratio compared to β-actin. Levels of hBD-1 expression in malignant prostate tissue, hPREC prostate primary culture, and prostate cancer cell lines before and after induction were calculated relative to the average level of hBD-1 expression in hPrEC cells. […]"}},
  "note": "Entries after “also recorded” stand apart in the source; their conditions may differ.",
  "data": [
    {"compound": "NC(=O)c1ncn([C@@H]2O[C@H](CO)[C@@H](O)[C@H]2O)c1N", "note": "[AICAR, 5-Aminoimidazole-4-carboxamide-1-β-4-ribofuranoside]", "values": [
      {"measurement": "phospho-STAT3 protein levels", "setting": "phospho-STAT3", "result": "suppressed; also recorded: suppress phospho-STAT3 protein levels"},
      {"measurement": "phospho-PAX2 protein levels", "setting": "phospho-PAX2", "result": "suppression; also recorded: suppress phospho-PAX2 protein expression levels"},
      {"measurement": "PAX2 expression / protein levels", "setting": "PAX2 protein", "result": "suppression of PAX2 pression expression; also recorded: suppress PAX2 protein levels"}
    ]},
    {"compound": "N#CC(=C(/N)Sc1ccccc1N)/C(C#N)=C(\\N)Sc1ccccc1N", "note": "[Drug U0126, U0126]", "values": [
      {"measurement": "phospho-STAT3 protein levels", "setting": "phospho-STAT3", "result": "reduced phospho-STAT3 protein levels; also recorded: suppress phospho-STAT3 protein levels"},
      {"measurement": "phospho-PAX2 protein levels", "setting": "phospho-PAX2", "result": "significant decrease or suppression of phospho-PAX2 protein levels; also recorded: suppress phospho-PAX2 protein expression levels"},
      {"measurement": "PAX2 expression / protein levels", "setting": "PAX2 protein", "result": "significant reduction of PAX2 expression; also recorded: suppress PAX2 protein levels"},
      {"measurement": "phospho-JNK protein levels", "setting": "phospho-JNK", "result": "did not decrease phospho-JNK protein levels; also recorded: failed to decrease phospho-JNK protein levels"}
    ]},
    {"compound": "CCCCc1nc(Cl)c(CO)n1Cc1ccc(-c2ccccc2-c2nn[nH]n2)cc1", "note": "[Los, Losartan]", "values": [
      {"measurement": "ERK protein levels", "setting": "ERK", "result": "no effect on ERK protein levels"},
      {"measurement": "phospho-STAT3 protein levels", "setting": "phospho-STAT3", "result": "reduced phospho-STAT3 protein levels; also recorded: suppress phospho-STAT3 protein levels"},
      {"measurement": "phospho-PAX2 protein levels", "setting": "phospho-PAX2", "result": "significant decrease or suppression of phospho-PAX2 protein levels; also recorded: suppress phospho-PAX2 protein expression levels"},
      {"measurement": "decrease in proliferation rate", "setting": "DU145 cells; DU145", "result": 50, "unit": "%"},
      {"measurement": "effect on AngII-induced proliferation", "setting": "DU145 cells; DU145, pre-treating for 30 min", "result": "suppressed the effect of AngII on proliferation"},
      {"measurement": "PAX2 expression / protein levels", "setting": "PAX2 protein", "result": "significant reduction of PAX2 expression; also recorded: suppress PAX2 protein levels"},
      {"measurement": "effect on AngII effect on PAX2 expression", "setting": "PAX2; DU145", "result": "blocks the effect of Angiotensin II (AngII) effect on PAX2 expression"},
      {"measurement": "reduction of PAX2 expression", "setting": "PAX2; DU145, 48 hours", "result": 37, "unit": "%"},
      {"measurement": "reduction of PAX2 expression", "setting": "PAX2; DU145, 72 hours", "result": 50, "unit": "%"},
      {"measurement": "phospho-ERK", "setting": "phospho-ERK 1/2", "result": "reduced the amount of phospho-ERK; also recorded: suppresses phospho-ERK 1/2 and PAX2 protein levels"},
      {"measurement": "phospho-JNK protein levels", "setting": "phospho-JNK", "result": "did not decrease phospho-JNK protein levels; also recorded: failed to decrease phospho-JNK protein levels"}
    ]},
    {"compound": "COc1cccc(-c2cc(=O)c3ccccc3o2)c1N", "note": "[PD98059]", "values": [
      {"measurement": "phospho-STAT3 protein levels", "setting": "phospho-STAT3", "result": "reduced phospho-STAT3 protein levels; also recorded: suppress phospho-STAT3 protein levels"},
      {"measurement": "phospho-PAX2 protein levels", "setting": "phospho-PAX2", "result": "significant decrease or suppression of phospho-PAX2 protein levels; also recorded: suppress phospho-PAX2 protein expression levels"},
      {"measurement": "PAX2 expression / protein levels", "setting": "PAX2 protein", "result": "decreased PAX2; also recorded: suppress PAX2 protein levels"}
    ]},
    {"compound": "Cc1cc(Cn2cnc3c2C[C@@H](C(=O)O)N(C(=O)C(c2ccccc2)c2ccccc2)C3)ccc1N(C)C", "note": "[PD123319]", "values": [
      {"measurement": "increase in PAX2 expression", "setting": "PAX2; DU145, 48 hours", "result": 7, "unit": "fold"},
      {"measurement": "increase in PAX2 expression", "setting": "PAX2; DU145, 96 hours", "result": 8, "unit": "fold"}
    ]},
    {"compound": "Angiotensin II (DRVYIHPF) [AngII]", "values": [
      {"measurement": "proliferation rate", "setting": "DU145 cells; DU145, AngII treatment", "result": "two- to three-fold increase; also recorded: increases DU145 cell proliferation"},
      {"measurement": "PAX2 expression", "setting": "PAX2; DU145, 30 min to 48 hour AngII treatment", "result": "progressively increased over time"},
      {"measurement": "increase in PAX2 expression relative to untreated hPrEC cells", "setting": "PAX2; hPrEC, 10 μM, 72 hours", "result": 66, "unit": "%"},
      {"measurement": "PAX2 expression in hPrEC as % of PAX2 levels in PC3 cells", "setting": "PAX2; hPrEC, 72 hours", "result": 77, "unit": "%"},
      {"measurement": "PAX2 expression in hPrEC as % of PAX2 expression in PC3 cells", "setting": "PAX2; hPrEC, 96 hours", "result": 89, "unit": "%"},
      {"measurement": "decrease in DEFB1 expression relative to untreated hPrEC cells", "setting": "DEFB1; 72 hours", "result": 35, "unit": "%"},
      {"measurement": "decrease in DEFB1 expression relative to untreated hPrEC cells", "setting": "DEFB1; 96 hours", "result": 50, "unit": "%"},
      {"measurement": "increase in DEFB1 relative to untreated hPrEC cells", "setting": "DEFB1; 96 hours", "result": 79, "unit": "%"}
    ]}
  ]
}
